We go through two molecules from paper PMC8705538, “Discovery of SARS-CoV-2 Nsp14 and Nsp16 Methyltransferase Inhibitors by High-Throughput Virtual Screening” (Pharmaceuticals, 2021).

Data set [1] can be described thus: Cytotoxicity, neutral red uptake, HepG2. Format: cell-based. The note with it: human; 48 h, neutral red uptake; read-out: Cytotoxicity (CC50) HepG2. The procedure: (§1) A549 human non-small cell lung cancer cell line, HepG2 hepatocarcinoma cells, and BALB/c 3T3 clone A31 murine fibroblast cell line for the study were obtained from ATCC (American Type Culture Collection, Manassas, VA, USA). Cells were propagated in DMEM medium (Sigma, D6046, Irvin, UK) supplemented with 1% penicillin (100 U/mL)–streptomycin (100 μg/mL) and 10% foetal bovine serum (Sigma, F7524, St Louis, MO, USA) in case of A549 and HepG2 or 10% calf serum (Sigma, C8056, St Louis, MO, USA) in case of BALB/c 3T3. All cultivations were performed in a humidified 5% CO2 atmosphere at 37 °C.
(§2) The cytotoxicity of the compounds was tested in A549, HepG2, and BALB/c3T3 cell lines by neutral red (NR) uptake assay. A549 and BALB/c3T3 cells were seeded in 96-well plates at a density of 8 × 10^3 cells per well, HepG2 at density 1.2 × 10^4 cells per well. After 24 h incubation, test compounds in a concentration range of 0.8 to 200 μM were added. Cultivation in the presence of test compounds was done for 48 h. Afterwards, the plates were washed with phosphate-buffered saline (PBS) (Sigma, D8537, Irvin, UK), and 25 µg/mL NR solution (Sigma, N2889, Irvin, UK) was added. In case of BALB/c 3T3 cells, NR was diluted in 5% foetal calf serum containing media, while for A549 and HepG2 cells, it was diluted in 5% foetal bovine serum containing media. After 3 h incubation, the plate was washed with PBS, and the NR taken up by viable cells was extracted using desorbing fixative (50% ethanol/1% acetic acid/49% water). Absorbance at 540 nm was measured using a Tecan M200 Infinite Pro microplate reader. Cytotoxicity was expressed as a concentration-dependent reduction of the uptake of NR, compared to the untreated controls, and the IC50 value for each compound was calculated.

Data set [2] relates to 3T3, A549, and HepG2 cell lines. As to the kind of experiment: Cytotoxicity, summary statements over the three cell lines. The note with it: 3T3, A549, HepG2. Format: cell-based. The procedure:
as §2

Data set [3] concerns the target T1, human Glycine N-Methyltransferase (GNMT) (Homo sapiens, UniProt Q14749).
T1 construct: purchased MyBioSource MBS636160
T1 sequence (Q14749 1-295): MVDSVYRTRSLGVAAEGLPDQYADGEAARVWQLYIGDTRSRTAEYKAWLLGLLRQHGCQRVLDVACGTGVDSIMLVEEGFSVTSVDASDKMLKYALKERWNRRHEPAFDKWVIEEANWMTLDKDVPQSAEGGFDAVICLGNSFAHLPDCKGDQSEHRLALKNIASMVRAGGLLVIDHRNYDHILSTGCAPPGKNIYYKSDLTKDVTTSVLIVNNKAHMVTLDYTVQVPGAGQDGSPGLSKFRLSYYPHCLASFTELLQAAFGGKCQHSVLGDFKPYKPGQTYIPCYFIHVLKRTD
As to the kind of experiment: HTRF methyltransferase selectivity assay, human GNMT. Format: biochemical. The note with it: for Ligand Efficiency (LE) Human (hMtase): estimated from IC50 values; for inhibition at 100 µM: read-out: Percent inhibition at 100 μM, Human.

In the next data set the target is SARS-CoV-2 nsp14 (Severe acute respiratory syndrome coronavirus 2, UniProt P0DTD1). As to the kind of experiment: biochemical. The note with it: for Ligand Efficiency (LE) nsp14: estimated from IC50 values; for inhibition at 100 µM: read-out: Percent inhibition at 100 μM, nsp14.
Data set [4] is described as follows: Cytotoxicity, neutral red uptake, A549. The note with it: human; 48 h, neutral red uptake; read-out: Cytotoxicity (CC50) A549. Format: cell-based. The procedure: as §1, §2
Data set [5] is described as follows: Cytotoxicity, neutral red uptake, 3T3. Format: cell-based, murine. The note with it: mouse; 48 h, neutral red uptake; read-out: Cytotoxicity (CC50) 3T3. The protocol:
as §1, §2

A further data set concerns the target SARS-CoV-2 nsp16/nsp10 (Severe acute respiratory syndrome coronavirus 2, UniProt P0DTD1). The experiment in a line: biochemical. The note with it: for inhibition at 100 µM: read-out: Percent inhibition at 100 μM, nsp16.
The subject of another data set is A549 cell culture. The experiment in a line: Cell permeability testing (LC/MS/MS of cell lysates and media). Type of data set: in vitro ADME, human. The note with it: for cell permeability (in words): A549; for Cell Permeability, 2 × 10^4 Cells/L / Cell Permeability, 4 × 10^4 Cells/L: A549, compound 20 μM, 24 h, LOQ 0.2 μM or 1%. The procedure:
To test cell permeability, each compound was added to A549 cell culture at a concentration of 20 μM and incubated for 24 h. Cells were seeded in 6-well plates at a density of 2 × 10^4 and 4 × 10^4 cells per well at concentrations 1 × 10^4 and 2 × 10^4 cells/mL media for the testing of each compound, each in three replicates. After the incubation, the cell cultivation media and cell lysates were collected. After the removal of media, cells were washed with ice-cold PBS (Sigma, D1408, Irvin, UK) and lysed for 30 min in 500 µL per well ice-cold RIPA buffer (Sigma, R0278, St Louis, MO, USA). Samples were stored at −80 °C until analysis.
The quantitative determination of tested compounds in cell lysates and culture media was performed on a Waters MICROMASS QUATTRO microTM tandem mass spectrometer combined with Acquity UPLC system. Acquity UPLC BEH C8 (2.1 × 50 mm × 1.7 μm) column was used at a flow rate of 0.25 mL/min. The column oven was set at 30 °C, and the sample injection volume was 5 μL. The mobile phase consisted of a combination of A (0.1% formic acid in water) and B (acetonitrile). The gradient elution program from 5% B to 98% B in 5 min was applied for analysis. Tandem mass spectrometer in positive electrospray mode was used for quantification. The TargetLynx software was applied to process LC/MS/MS data. Samples for LC/MS/MS analysis were prepared as follows: 200 μL of acetonitrile/methanol mixture (3:1 v/v) was add to 200 μL of each cell lysate and culture media sample. Then, the samples were centrifuged (10,000 rpm, 10 min), and the supernatants (300 μL) were removed from each sample and placed in vials for LC/MS/MS analysis. Calibration curves for all analytes were produced by analysis of standard solutions over a concentration range of 0.2 to 20 μM.

As usually defined, the CC50 is the concentration giving 50% cytotoxicity. Broadly, the IC50 is the point on the concentration scale where inhibition reaches its midpoint. Low readings indicate greater potency, high ones weaker potency. Usually inhibition stands for the drop in the measured response relative to a control, in per cent. With `O=C(Cn1c(=O)[nH]c2c(-c3ccccc3)c[nH]c2c1=O)NCc1cccnc1` [ZINC33037945], the CC50 at 48 h in data set [1] is above 100 µM. Besides, the “cytotoxicity (in words)” value in data set [2] is reported as “no measurable cytotoxicity”. Moreover, in data set [3], inhibition was half-maximal at 125 ± 6 µM (IC50), the “Ligand Efficiency (LE) Human (hMtase)” value is recorded as 0.19 kcal/mol and the inhibition at 100 µM was 53 ± 8%. At SARS-CoV-2 nsp14, the half-inhibitory concentration (IC50) amounted to 106 ± 5 µM, the “Ligand Efficiency (LE) nsp14” value is on record as 0.19 kcal/mol and the inhibition at 100 µM is 56 ± 5%. In data set [4], the half-maximal cytotoxic concentration (CC50) at 48 h was above 100 µM. In addition, in data set [5], the CC50 at 48 h was above 100 µM. At SARS-CoV-2 nsp16/nsp10 (HTRF, nsp16/nsp10, SAM 10 µM, m7GpppA-RNA), the “IC50 nsp16” value is “inactive”. Further, the inhibition at 100 µM on SARS-CoV-2 nsp16/nsp10 was -8 ± 6%. In the data set on A549 cell culture, the “cell permeability (in words)” value was “good cell permeability”; the “Cell Permeability, 2 × 10^4 Cells/L” value is 17.9%; the “Cell Permeability, 4 × 10^4 Cells/L” value was 30.8%.
As to `O=C(Cc1csc(SCC(=O)c2ccccc2)n1)Nc1cccc2nsnc12` [ZINC38661771], the half-maximal cytotoxic concentration (CC50) at 48 h in data set [1] was found to be 93.8 µM. Moreover, the “concentration at which cytotoxicity was shown” value in data set [2] is “≈ 100 μM”. Besides, in data set [3], the IC50 worked out at 58 ± 3 µM, the “Ligand Efficiency (LE) Human (hMtase)” value is on record as 0.21 kcal/mol and the inhibition at 100 µM was 63 ± 5%. For the same molecule, on SARS-CoV-2 nsp14, the IC50 came to 118 ± 4 µM, the “Ligand Efficiency (LE) nsp14” value is reported as 0.19 kcal/mol and the inhibition at 100 µM was 58 ± 7%. Further, the CC50 at 48 h in data set [4] is 97 µM. Moreover, the CC50 at 48 h in data set [5] turned out to be 116 µM. Moreover, at SARS-CoV-2 nsp16/nsp10, the midpoint of inhibition, the IC50, lay at 51 ± 2 µM and the inhibition at 100 µM worked out at 69 ± 8%. In addition, the “Ligand Efficiency (LE) nsp16” value at SARS-CoV-2 nsp16/nsp10 (estimated from IC50 values) was 0.21 kcal/mol. Besides, in the data set with A549 cell culture, the “cell permeability (in words)” value is reported as “low level of cell permeability”; the “Cell Permeability, 2 × 10^4 Cells/L” value is recorded as “<LOQ”; the “Cell Permeability, 4 × 10^4 Cells/L” value is “<LOQ”.
